Values of other authors in patent US20200188266A1, “Oral Care Compositions and Methods of Use” (priority 2017, published 2020).

Conditions: DI water at about 35° C.

In the case of `CC(=O)c1c(O)c(C)c(O)c2c1OC1=CC(=O)C(C(C)=O)C(=O)C12C` (stereo not shown) [usnic acid], the solubility is given as “about 6.3 ppm”.
